The values that follow come from patent US11433043B2, “Compounds useful for increasing neurogenesis in neural tissue” (ALFASIGMA S.P.A., priority 2010, dated 2022).

Type in all cases: cell-based
Series [1] relates to adult neural progenitors taken from the mouse hippocampus. Kind of series: Differentiation of stem cells/adult neural progenitors from hippocampal neurospheres (MAP-2/nestin immunofluorescence). The following applies: for NPC neuronal differentiation: compared to ALC 1 mM. On the procedure: The adult stem cells from the mouse hippocampus were prepared and maintained in culture in the form of neurospheres as described previously in Denis-Donini S. et al. J. Neuroscience, 2008. In particular, male CD1 mice aged 3-5 months were used, in accordance with the animal experimentation laws.
For differentiation, the cells derived from the hippocampal neurospheres with passages of between 4-12 were dissociated and plated on Lab-Tek 8-well permanox chamber slides (Nunc, Wiesbaden, Germany) previously coated with mouse laminin (2.5 μg/cm^2 Sigma) at a density of about 40,000 cells/cm^2. The composition of the differentiation medium was: Neurobasal-A, supplement B27, glutamine 2 mM, 100 U/100 μg/ml penicillin/streptomycin. ALC (0.1-2 mM) or a vehicle was added to the medium. After 24 hours the cells were washed and fixed in 4% paraformaldehyde for 20 min for subsequent analysis using immunofluorescence.
The cells fixed after differentiation in the presence of ALC, a vehicle or reference drugs were washed three times in PBS and permeabilized by incubation for 5 min, at room temperature with PBS supplemented with 0.48% (vol/vol) Triton X-100 (Sigma). Subsequently the cells were incubated with the following primary antibodies: anti-nestin mouse monoclonal antibody, 1:1200, Abcam, Cambridge, Mass.); anti-MAP-2 (rabbit polyclonal antibody, 1:600, Chemicon). The cells were incubated in the primary antibody for 150 min at room temperature in a solution containing 8% (vol/vol) of goat serum. The secondary antibodies used were: Alexa Fluor 594-conjugated donkey anti mouse antibody (1:1400, Molecular Probes), Alexa Fluor 488-conjugated donkey anti-rabbit (1:1 600, Molecular Probes), in a solution containing 16% (vol/vol) of donkey serum. The nuclei were then counterstained with Draq5 (1:2000, Alexis Biochemicals) prepared in PBS. The slides were assembled using Fluorescent Mounting Medium (DakoCytomation, Glostrup).
In each experiment, the cells of at least 5 fields/well (corresponding to about 150 cells), were quantified if positive to one or more phenotypical markers used to distinguish between them: undifferentiated stem progenitor cells, immature neurons, mature neurons. The cells were counted by an operator (blind to the nature of the treatment undergone by the cells) using an ECLIPSE E600 fluorescence microscope (NIKON, Calenzano, Italy) with a 60× lens. All experiments were conducted on at least five cell preparations, with each experimental point in triplicate.

The test system is the same in series [2]. The experiment in a line: Cell survival: apoptotic nuclei (Hoechst staining) after differentiation. The method, then:
(§1) After differentiation in the presence of ALC, a vehicle or reference drugs, the medium was collected and the activity of the LDH enzyme was determined using the Cytotoxicity Detection Kit LDH (Roche Applied Science), following the manufacturer's instructions, to quantify death due to necrosis. In parallel, to assess also apoptotic death, after fixation, the cell nuclei were marked with 0.8 ng/ml Hoechst (Sigma-Aldrich) diluted in PBS. The apoptic nuclei were counted by an operator (blind to the nature of the treatment undergone by the cells) using an ECLIPSE E600 fluorescence microscope (NIKON, Calenzano, Italy) with a 60× lens. All experiments were conducted on at least five cell preparations, with each experimental point in triplicate.

Series [3] shares this test system. The experiment in a line: Cell survival: LDH enzyme activity in culture medium (necrosis). The method, then:
as §1

Setting [4] is: Example 1, ALC 0.1-2 mM, 24 hours, FIG. 5.
Setting [5] is: Example 2, 0.3-1 mM, lesser extent compared to ALC 1 mM, FIG. 6.
Setting [6] is: at the concentrations that induced neurogenesis.

On to `CC(=O)O[C@H](CC(=O)[O-])C[N+](C)(C)C` [ALC, acetyl L-carnitine], for which the “percentage of MAP-2 positive cells in culture” value in series [1] (Example 1, ALC 0.1-2 mM, 24 hours differentiation, concentration-dependent, FIG. 1) is “increase”. In addition, in series [1] (setting [4]), the “number of immature neurons (MAP2 positive, nestin positive)” value was “increased”; the “number of progenitor cells (MAP2 negative, nestin negative)” value is given as “decreased”; the “number of stem/progenitor cells (MAP2 negative, nestin positive)” value is listed as “no effect”. In addition, the “number of mature neurons (MAP2 positive, nestin negative)” value in series [1] (Example 1, ALC 0.1-2 mM, 24 hours, concentration-dependent, FIG. 5) was “increased”. Besides, the “percentage of apoptotic nuclei” value in series [2] (ALC 100 μM, 300 μM or 1 mM, FIG. 3) is reported as “did not reduce”. Further, the “activity of the LDH enzyme, an index of necrosis, in the culture medium” value in series [3] (ALC 100 μM, 300 μM or 1 mM, FIG. 4) was “did not reduce”.
On to `C[N+](C)(C)C[C@H](O)CC(=O)[O-]` [LC, L-carnitine], for which the NPC neuronal differentiation entry in series [1] (Example 2, 0.3-1 mM, FIG. 6) is “no effect”.
Regarding `CCC(=O)O[C@H](CC(=O)[O-])C[N+](C)(C)C` [PLC, propionyl L-carnitine], the NPC neuronal differentiation result in series [1] (Example 2, 0.3-1 mM, FIG. 6) is on record as “less potent activator”. In series [1] (setting [5]), the “number of a subpopulation of undifferentiated stem/neural progenitors” value is “reduced”, the “number of immature neurons” value is “increased” and the “number of mature neurons” value is “increased”. The “percentage of apoptotic nuclei” value in series [2] (setting [6]) is given as “did not reduce”. The “activity of the LDH enzyme, an index of necrosis” value in series [3] (setting [6]) was “did not reduce”.
